Source: article PMC10254852, “Design, Synthesis and Anticancer Evaluation of Nitroimidazole Radiosensitisers” (Molecules, 2023)
Read-outs that look alike come from different tables or passages of the source.

Experiments:
[1] = test system: FaDu cells; test: In vitro cytotoxicity, 4 h exposure oxic/anoxic, 5-day regrowth, sulforhodamine B; assay type: cell-based; details: for IC50: Homo sapiens, 4 h exposure, mean ± SEM; for HCR: IC50(oxic)/IC50(anoxic)
Description: (§1) This allowed derivation of hypoxia cytotoxicity ratios (HCR) as IC50(oxic)/IC50(anoxic) in an HCT116 subclone HCT116/54C and two HNSCC cell lines, FaDu and UT-SCC-74B (Table 2).
(§2) HCT116/54C is an HCT116 subline that originated from a mixed culture with UT-SCC-54C cells, which was supplied alongside UT-SCC-74B by Prof. Bradly Wouters (University Health Network, Toronto, ON, Canada). HCT116/54C and UT-SCC-74B cells were passaged in minimum essential media (MEM, ThermoFisher Scientific, Waltham, MA, USA) with 10% foetal calf serum (FCS, Moregate Biotech, Hamilton, New Zealand), 4.5 mg/mL D-glucose (Sigma-Aldrich, St. Louis, MO, USA) and 20 mM HEPES (Sigma-Aldrich). FaDu cells were sourced from American Type Culture Collection and cultured in αMEM (ThermoFisher Scientific) with 10% FCS. All cell lines were confirmed mycoplasma-free by PlasmoTest (InvivoGen, San Diego, CA, USA) and were derived from STR-authenticated cryopreserved stocks. Log-phase cells were seeded into 96-well plates at 800 cells/well for HCT116/54C and 1500 cells/well for FaDu. […] After drug washout, cells were grown and stained as for the oxic IC50 assays. The hypoxic cytotoxicity ratio HCR was determined as HCR = IC50(oxic)/IC50(anoxic).

[2] = test system: HCT116/54C cells; test: as above; assay type: cell-based, human; details: HCT116/54C; for HCR: IC50(oxic)/IC50(anoxic); for IC50: Homo sapiens, 4 h exposure, mean ± SEM, n = 3–4
Description: as §1, §2

[3] = test system: HCT116/54C cells; test: In vitro radiosensitisation under anoxia, clonogenic survival; assay type: cell-based, human; details: compound 1 mM, radiation dose for 1% survival/radiation dose for 1% survival with compound, mean ± SEM
Description: Next, we evaluated in vitro radiosensitisation by using a representative subset of nitroimidazole compounds in HCT116/54C cells with a clonogenic survival endpoint. Radiosensitisation was determined by treating cells under anoxia with a range of radiation doses alone and with compounds at equimolar doses (1 mM). Sensitiser enhancement ratios (SER) were calculated as the ratio of radiation dose required for 1% clonogenic survival alone or with compound (Table 3).
Cells were seeded onto 96-well plates at 10^5 cells per well and allowed to attach for 2 h. […] The plates were irradiated (Eldorado 78 ^60Co teletherapy unit, ~2 Gy/min) with 15 Gy under anoxia at room temperature for SR experiments. A metal wedge placed on the top of the metal chamber was used to achieve a graduated radiation dose across the plate, varying from 7 to 29 Gy, calibrated by Fricke dosimetry with ammonium thiocyanate as previously described for SER experiments. The control plate (compound alone, no radiation) was left inside the anaerobic chamber at room temperature during the irradiation period. After treatment, the cells were trypsinized and suspended in usual media + 1% penicillin-streptomycin (ThermoFisher Scientific), and 10-fold serial dilutions were plated for clonogenic survival. After 10 days, plates were stained with methylene blue (2 g/L in EtOH/H2O, 1:1 v/v) and colonies with more than 50 cells were counted. The surviving fraction (SF) was determined as: SF = PE(irradiated)/PE(control) where the plating efficiency (PE) = (No. of colonies)/(No. of cells plated). SF was plotted against radiation dose. Survival ratios (SR) were calculated: SR = (cell survival with radiation)/(cell survival with drug + radiation). Sensitizer enhancement ratios (SER) were calculated: SER = (radiation dose for 1% survival without compound)/(radiation dose for 1% survival with compound).

[4] = test system: UT-SCC-74B cells; test: In vitro cytotoxicity, 4 h exposure oxic/anoxic, 5-day regrowth, sulforhodamine B; assay type: cell-based, human; details: for IC50: Homo sapiens, 4 h exposure, mean ± SEM; for HCR: IC50(oxic)/IC50(anoxic)
Description: as §1, §2

[5] = test system: HCT116/54C tumours; test: Tumour radiosensitisation: ex vivo clonogenic assay; assay type: in vivo, NIH-III mice; details: for Sensitisation Ratio: 2.2 mmol/kg i.v. 5 min prior to 10 Gy radiation, surviving fraction after radiation/surviving fraction after drug + radiation; for enhancement of tumour killing of radiotherapy (RAD vs drug + RAD): 2.2 mmol/kg i.v. + 10 Gy, one-way ANOVA
Description: Specific pathogen-free six- to eight-week-old female NIH-III mice, bred in the Vernon Jansen Unit, University of Auckland, were used for animal experiments. Animals had ad libitum access to food and water and were maintained in microisolator cages on a 12 h light/dark cycle. All treatments were administered by i.v. injection at a dose of 2.2 mmol/kg and injection volume of 10 mL/kg. Compounds 2, 34 and 38 were administered as solutions in saline containing 1% DMSO or for 9–12 as solutions in saline containing 2 molar equivalents of NaHCO3. Control animals received an i.v. injection of saline at 10 mL/kg. All animal experiments were conducted under the auspices of the University of Auckland Animal Ethics Committee (approval 1781).
Compounds were evaluated for in vivo radiosensitisation of hypoxic cells in HCT116/54C and UT-SCC-74B human tumour xenografts using clonogenic survival as an endpoint, using previously report methods. Tumours were grown subcutaneously on the flanks of NIH-III mice by injecting 5 × 10^6 HCT116/54C cells or UT-SCC-74B cells. Once tumours reached a volume of approximately 250 mm^3, mice were randomly assigned to 4 treatment groups and treated with: (A) vehicle control, (B) 10 Gy RAD only, (C) sensitiser only, or (D) sensitiser given before 10 Gy RAD. Drugs were administered as a single i.v. dose at 2.2 mmol/kg. […] Tumours were excised 18 h after treatment, and tumour cells were dissociated enzymatically and plated to determine the number of surviving (clonogenic) cells per gram of tumour tissue. SF and SR were calculated as described above. Statistical significance of drug effects was tested using one-way ANOVA with Sidak tests for multiple comparisons vs. radiation alone (Table 5).

[6] = parameters: method as in PMID 29253343; details: NIH-III mice, 2.2 mmol/kg i.v., cited from earlier work; for Cmax: read-out: Plasma Cmax
[7] = anoxic, n = 3–4, read-out: IC50 Anoxic
[8] = oxic, n = 3–4, read-out: IC50 Oxic

| Structure (SMILES) | IC50 [1, 7] | IC50 [1, 8] | HCR [1] | HCR [2] | IC50 ([2]; anoxic, read-out: IC50 Anoxic) | IC50 ([2]; oxic, read-out: IC50 Oxic) | SER at 1 mM [3] | IC50 [4, 7] | IC50 [4, 8] | HCR [4] | Sensitisation Ratio [5] | enhancement of tumour killing of radiotherapy (RAD vs drug + RAD) [5] | AUC [6] | T1/2 [6] | Cmax [6] |
| --- | --- | --- | --- | --- | --- | --- | --- | --- | --- | --- | --- | --- | --- | --- | --- |
| Cc1ncc([N+](=O)[O-])n1CCS(=O)(=O)N1CCN(C)CC1 [Compound 43] | 8.6 ± 0.6 mM | 13.3 ± 2.5 mM | 1.6 | 1.2 | 9.9 ± 0.3 mM | 11.7 ± 1.3 mM | – | – | – | – | – | – | – | – | – |
| COCCNS(=O)(=O)Cn1cncc1[N+](=O)[O-] [Compound 37] | 2.1 ± 0.04 mM | 12 ± 1.9 mM | 5.7 | 2.9 | 4 ± 0.7 mM | 11.4 ± 1 mM | – | – | – | – | – | – | – | – | – |
| O=[N+]([O-])c1cncn1CCN1CCOCC1 [Compound 3, nimorazole, reference compound] | 13.2 ± 3.4 mM | > 20 mM | >1.5 | – | > 20 mM | > 25 mM | 1.20 ± 0.01 | – | – | – | – | – | – | – | – |
| Cc1ncc([N+](=O)[O-])n1CCS(=O)(=O)NCCO [Compound 41] | > 22 mM | > 25 mM | – | >1.1 | 15.5 ± 2.6 mM | > 18 mM | 1.16 ± 0.01 | 13.7 ± 3.7 mM | > 21 mM | >1.5 | – | – | – | – | – |
| O=[N+]([O-])c1nccn1CCS(=O)(=O)NCCO [Compound 6] | 1.2 ± 0.2 mM | 17.8 ± 2.2 mM | 14.9 | >7.3 | 2.2 ± 0.04 mM | > 16 mM | 1.39 ± 0.01 | 3 ± 0.6 mM | > 20 mM | >6.6 | – | – | – | – | – |
| O=[N+]([O-])c1cncn1CS(=O)(=O)NCCOP(=O)(O)O [Compound 11] | – | – | – | – | – | – | – | – | – | – | 1.85 | not | 710 µM·h | 1.72 h | 1100 µM |
| O=[N+]([O-])c1cncn1CCS(=O)(=O)NCCOP(=O)(O)O [Compound 12] | – | – | – | – | – | – | – | – | – | – | 3.32 | significantly enhanced the tumour killing of radiotherapy | – | – | – |
| Cc1ncc([N+](=O)[O-])n1CCS(=O)(=O)NCCN1CCCCC1 [Compound 45] | 1.7 ± 0.4 mM | 4.8 ± 0.3 mM | 2.8 | 5.0 | 2.4 ± 0.4 mM | 11.8 ± 1.5 mM | – | – | – | – | – | – | – | – | – |
| O=[N+]([O-])c1nccn1CCS(=O)(=O)NCCOP(=O)(O)O [Compound 10] | – | – | – | – | – | – | – | – | – | – | 1.78 | not | 640 µM·h | 2.21 h | 1140 µM |
| COCCNS(=O)(=O)CCn1cncc1[N+](=O)[O-] [Compound 39] | 7.2 ± 0.2 mM | > 19 mM | >2.6 | >1.9 | 13 ± 1.3 mM | > 25 mM | – | – | – | – | – | – | – | – | – |
